Results from ChEMBL document CHEMBL2150939, “Synthesis and cytotoxicity of novel ursolic acid derivatives containing an acyl piperazine moiety” (Eur J Med Chem, 2012).
Calls of active or inactive are those of the source. The rule behind the calls is not given here.

Key:
Bcap37 [1] = assay: Antiproliferative activity against human Bcap37 cells after 72 hrs by MTT assay; assay type: functional, cell-based; conditions: Bcap37, 72 h
[2] = Growth inhibition of mouse NIH/3T3 cells at 10 uM after 72 hrs by MTT assay; assay type: cell-based, NIH3T3; conditions: read-out: GI
Bcap37 [3] = assay: Growth inhibition of human Bcap37 cells at 10 uM after 72 hrs by MTT assay; assay type: functional; conditions: Bcap37, 72 h, read-out: GI
MGC-803 [4] = assay: Antiproliferative activity against human MGC803 cells after 72 hrs by MTT assay; assay type: functional, cell-based; conditions: MGC-803, 72 h
MGC-803 [5] = assay: Growth inhibition of human MGC803 cells at 10 uM after 72 hrs by MTT assay; assay type: functional; conditions: MGC-803, 72 h, read-out: GI
MGC-803 [6] = assay: Induction of apoptosis in human MGC803 cells assessed as early and late apoptotic level at 10 uM after 24 hrs by annexinV/FITC-PI staining-based flow cytometric analysis; assay type: functional
MGC-803 [7] = assay: Induction of apoptosis in human MGC803 cells assessed as early and late apoptotic level at 10 uM after 12 hrs by annexinV/FITC-PI staining-based flow cytometric analysis; assay type: functional
MGC-803 [8] = assay: Induction of apoptosis in human MGC803 cells at 10 uM after 48 hrs by acridine orange/ethidium bromide staining; assay type: functional, cell-based
MGC-803 [9] = assay: Induction of apoptosis in human MGC803 cells assessed as DNA fragmentation at 10 uM after 24 hrs by TUNEL assay; assay type: functional, cell-based
MGC-803 [10] = assay: Induction of apoptosis in human MGC803 cells assessed as early and late apoptotic level at 10 uM after 36 hrs by annexinV/FITC-PI staining-based flow cytometric analysis; assay type: functional
MGC-803 [11] = assay: Induction of apoptosis in human MGC803 cells assessed as condensed chromatin at 10 uM after 48 hrs by Hoechst 33258 staining; assay type: functional, cell-based

Row | SMILES | IC50 (Bcap37 [1]; read-out: IC50) | inhibition at 72 h, 10 µM [2] | inhibition of growth at 10 µM (Bcap37 [3]) | IC50 (MGC-803 [4]) | inhibition of growth at 10 µM (MGC-803 [5]) | IC50 (Bcap37 [1]) | Activity (MGC-803 [6]) | Activity (MGC-803 [7]) | Activity (MGC-803 [8]) | Activity (MGC-803 [9]) | Activity (MGC-803 [10]) | Activity (MGC-803 [11])
1 | C[C@H]1[C@H](C)CC[C@]2(C(=O)OCCN3CCN(C(=O)c4ccccc4C(F)(F)F)CC3)CC[C@]3(C)C(=CC[C@@H]4[C@@]5(C)CC[C@H](O)C(C)(C)[C@@H]5CC[C@]43C)[C@H]12 | 10.9 µM | 16.2% | 38.6% | 8.72 µM | 71.2% | – | – | – | – | – | – | –
2 | C[C@H]1[C@H](C)CC[C@]2(C(=O)OCCN3CCN(C(=O)c4cccc(F)c4)CC3)CC[C@]3(C)C(=CC[C@@H]4[C@@]5(C)CC[C@H](O)C(C)(C)[C@@H]5CC[C@]43C)[C@H]12 | – | 33.5% | 32.1% | > 20 µM | 45.3% | – | – | – | – | – | – | –
3 | CCCCC(CC)C(=O)N1CCN(CCOC(=O)[C@]23CC[C@@H](C)[C@H](C)[C@H]2C2=CC[C@@H]4[C@@]5(C)CC[C@H](O)C(C)(C)[C@@H]5CC[C@@]4(C)[C@]2(C)CC3)CC1 (some centres not stated) | 4.16 µM | 54.5% | 68.6% | 6.89 µM | 80.8% | – | – | – | – | – | – | –
4 | COc1cccc2c1C(=O)c1c(O)c3c(c(O)c1C2=O)C[C@@](O)(C(=O)CO)C[C@@H]3O[C@H]1C[C@H](N)[C@H](O)[C@H](C)O1 [DOXORUBICIN] | – | 99.2% | 92.1% | 0.7 µM | 92.1% | 1.28 µM | – | – | – | – | – | –
5 | C[C@H]1[C@H](C)CC[C@]2(C(=O)OCCN3CCN(C(=O)c4cc([N+](=O)[O-])cc([N+](=O)[O-])c4)CC3)CC[C@]3(C)C(=CC[C@@H]4[C@@]5(C)CC[C@H](O)C(C)(C)[C@@H]5CC[C@]43C)[C@H]12 | – | 37.2% | 10.7% | – | 24.7% | – | – | – | – | – | – | –
6 | C[C@H]1[C@H](C)CC[C@]2(C(=O)OCCN3CCN(C(=O)c4cc(Cl)ccc4[N+](=O)[O-])CC3)CC[C@]3(C)C(=CC[C@@H]4[C@@]5(C)CC[C@H](O)C(C)(C)[C@@H]5CC[C@]43C)[C@H]12 | – | 77.7% | 33.2% | 9.41 µM | 57.3% | – | – | – | – | – | – | –
7 | C[C@H]1[C@H](C)CC[C@]2(C(=O)OCCBr)CC[C@]3(C)C(=CC[C@@H]4[C@@]5(C)CC[C@H](O)C(C)(C)[C@@H]5CC[C@]43C)[C@H]12 | – | 11% | 23.1% | 12.4 µM | 39.4% | – | – | – | – | – | – | –
8 | C[C@H]1[C@H](C)CC[C@]2(C(=O)OCCN3CCN(C(=O)c4ccc(F)cc4)CC3)CC[C@]3(C)C(=CC[C@@H]4[C@@]5(C)CC[C@H](O)C(C)(C)[C@@H]5CC[C@]43C)[C@H]12 | 5.12 µM | 71.3% | 83.7% | 7.29 µM | 71.8% | – | – | – | – | – | – | –
9 | C[C@H]1[C@H](C)CC[C@]2(C(=O)OCCN3CCN(C(=O)c4ccc(F)cc4F)CC3)CC[C@]3(C)C(=CC[C@@H]4[C@@]5(C)CC[C@H](O)C(C)(C)[C@@H]5CC[C@]43C)[C@H]12 | 8.31 µM | 18.1% | 60.5% | 12.5 µM | 32.1% | – | – | – | – | – | – | –
10 | C[C@H]1[C@H](C)CC[C@]2(C(=O)OCCN3CCN(C(=O)c4ccncc4)CC3)CC[C@]3(C)C(=CC[C@@H]4[C@@]5(C)CC[C@H](O)C(C)(C)[C@@H]5CC[C@]43C)[C@H]12 | – | 55.4% | 8.3% | 13.3 µM | 32.1% | – | – | – | – | – | – | –
11 | C[C@H]1[C@H](C)CC[C@]2(C(=O)OCCN3CCN(C(=O)c4ccccc4Cl)CC3)CC[C@]3(C)C(=CC[C@@H]4[C@@]5(C)CC[C@H](O)C(C)(C)[C@@H]5CC[C@]43C)[C@H]12 | 7.26 µM | 29.8% | 69.1% | 4.66 µM | 93% | – | – | – | – | – | – | –
12 | CCCCCCCCC(=O)N1CCN(CCOC(=O)[C@]23CC[C@@H](C)[C@H](C)[C@H]2C2=CC[C@@H]4[C@@]5(C)CC[C@H](O)C(C)(C)[C@@H]5CC[C@@]4(C)[C@]2(C)CC3)CC1 | – | 12% | 12.5% | > 20 µM | 44.2% | – | – | – | – | – | – | –
13 | CC[C@@]1(O)C(=O)OCc2c1cc1n(c2=O)Cc2cc3cc(O)ccc3nc2-1 [HYDROXYCAMPTOTHECIN] | > 20 µM | 9.3% | 28.1% | > 20 µM | 29.1% | – | 18.66% | 17.37% | Active | Active | 24.95% | Active
14 | COc1ccc(C(=O)N2CCN(CCOC(=O)[C@]34CC[C@@H](C)[C@H](C)[C@H]3C3=CC[C@@H]5[C@@]6(C)CC[C@H](O)C(C)(C)[C@@H]6CC[C@@]5(C)[C@]3(C)CC4)CC2)cc1OC | 11.1 µM | 73.1% | 51.8% | – | 24.5% | – | – | – | – | – | – | –
15 | Cc1ccccc1C(=O)N1CCN(CCOC(=O)[C@]23CC[C@@H](C)[C@H](C)[C@H]2C2=CC[C@@H]4[C@@]5(C)CC[C@H](O)C(C)(C)[C@@H]5CC[C@@]4(C)[C@]2(C)CC3)CC1 | 5.34 µM | 60.3% | 94.8% | 3.59 µM | 98.9% | – | – | – | – | – | – | –
16 | C[C@H]1[C@H](C)CC[C@]2(C(=O)OCCN3CCN(C(=O)/C=C/c4ccccc4)CC3)CC[C@]3(C)C(=CC[C@@H]4[C@@]5(C)CC[C@H](O)C(C)(C)[C@@H]5CC[C@]43C)[C@H]12 | 9.22 µM | 39% | 54.4% | 12.6 µM | 51.1% | – | – | – | – | – | – | –
17 | C[C@H]1[C@H](C)CC[C@]2(C(=O)OCCN3CCN(C(=O)Cc4ccc(Cl)cc4)CC3)CC[C@]3(C)C(=CC[C@@H]4[C@@]5(C)CC[C@H](O)C(C)(C)[C@@H]5CC[C@]43C)[C@H]12 | 10 µM | 2.9% | 52% | 8.59 µM | 68.6% | – | – | – | – | – | – | –
18 | C[C@H]1[C@H](C)CC[C@]2(C(=O)OCCN3CCN(C(=O)c4cccnc4Cl)CC3)CC[C@]3(C)C(=CC[C@@H]4[C@@]5(C)CC[C@H](O)C(C)(C)[C@@H]5CC[C@]43C)[C@H]12 | – | 4.3% | 29% | 14 µM | 34.3% | – | – | – | – | – | – | –
19 | C[C@H]1[C@H](C)CC[C@]2(C(=O)OCCN3CCN(C(=O)c4cccnc4)CC3)CC[C@]3(C)C(=CC[C@@H]4[C@@]5(C)CC[C@H](O)C(C)(C)[C@@H]5CC[C@]43C)[C@H]12 | – | 52.3% | 24.5% | – | 22% | – | – | – | – | – | – | –
20 | C[C@H]1[C@H](C)CC[C@]2(C(=O)OCCN3CCN(C(=O)c4ccnc(Cl)c4)CC3)CC[C@]3(C)C(=CC[C@@H]4[C@@]5(C)CC[C@H](O)C(C)(C)[C@@H]5CC[C@]43C)[C@H]12 | – | 44.3% | 19% | – | 24.1% | – | – | – | – | – | – | –
21 | C[C@H]1[C@H](C)CC[C@]2(C(=O)OCCN3CCN(C(=O)c4c(F)cccc4Cl)CC3)CC[C@]3(C)C(=CC[C@@H]4[C@@]5(C)CC[C@H](O)C(C)(C)[C@@H]5CC[C@]43C)[C@H]12 | 4.32 µM | 24.4% | 85.3% | 4.18 µM | 92.1% | – | – | – | – | – | – | –
22 | C[C@H]1[C@H](C)CC[C@]2(C(=O)OCCN3CCN(C(=O)c4ccc([N+](=O)[O-])cc4)CC3)CC[C@]3(C)C(=CC[C@@H]4[C@@]5(C)CC[C@H](O)C(C)(C)[C@@H]5CC[C@]43C)[C@H]12 | – | 65.4% | 19.1% | – | 24.3% | – | – | – | – | – | – | –
23 | C[C@H]1[C@H](C)CC[C@]2(C(=O)OCCN3CCN(C(=O)c4ccccc4)CC3)CC[C@]3(C)C(=CC[C@@H]4[C@@]5(C)CC[C@H](O)C(C)(C)[C@@H]5CC[C@]43C)[C@H]12 | – | 19.1% | 23.9% | – | 21.4% | – | – | – | – | – | – | –
24 | CC(C)c1ccc(C(=O)N2CCN(CCOC(=O)[C@]34CC[C@@H](C)[C@H](C)[C@H]3C3=CC[C@@H]5[C@@]6(C)CC[C@H](O)C(C)(C)[C@@H]6CC[C@@]5(C)[C@]3(C)CC4)CC2)cc1 | 11.8 µM | 5.5% | 45.5% | 5.02 µM | 72.3% | – | – | – | – | – | – | –
25 | C[C@H]1[C@H](C)CC[C@]2(C(=O)OCCN3CCNCC3)CC[C@]3(C)C(=CC[C@@H]4[C@@]5(C)CC[C@H](O)C(C)(C)[C@@H]5CC[C@]43C)[C@H]12 | 7.5 µM | 60.1% | 84.4% | 7.25 µM | 86.6% | – | – | – | – | – | – | –
26 | C=C/C=C/CC(=O)N1CCN(CCOC(=O)[C@]23CC[C@@H](C)[C@H](C)[C@H]2C2=CC[C@@H]4[C@@]5(C)CC[C@H](O)C(C)(C)[C@@H]5CC[C@@]4(C)[C@]2(C)CC3)CC1 | – | 35% | 14.7% | – | 23.4% | – | – | – | – | – | – | –
